Literature values, collected in patent US20210113561A1, “PHARMACEUTICAL COMPOSITION, METHODS FOR TREATING AND USES THEREOF” (Boehringer Ingelheim International GmbH, priority 2018, published 2021).

Key:
[1] = metformin on its own, in the diabetic
[2] = patients with type 2 diabetes mellitus at high risk for cardiovascular events
SGLT2 = target: T1, SGLT2 (Homo sapiens, UniProt P31639)
T1 sequence (P31639 1-672): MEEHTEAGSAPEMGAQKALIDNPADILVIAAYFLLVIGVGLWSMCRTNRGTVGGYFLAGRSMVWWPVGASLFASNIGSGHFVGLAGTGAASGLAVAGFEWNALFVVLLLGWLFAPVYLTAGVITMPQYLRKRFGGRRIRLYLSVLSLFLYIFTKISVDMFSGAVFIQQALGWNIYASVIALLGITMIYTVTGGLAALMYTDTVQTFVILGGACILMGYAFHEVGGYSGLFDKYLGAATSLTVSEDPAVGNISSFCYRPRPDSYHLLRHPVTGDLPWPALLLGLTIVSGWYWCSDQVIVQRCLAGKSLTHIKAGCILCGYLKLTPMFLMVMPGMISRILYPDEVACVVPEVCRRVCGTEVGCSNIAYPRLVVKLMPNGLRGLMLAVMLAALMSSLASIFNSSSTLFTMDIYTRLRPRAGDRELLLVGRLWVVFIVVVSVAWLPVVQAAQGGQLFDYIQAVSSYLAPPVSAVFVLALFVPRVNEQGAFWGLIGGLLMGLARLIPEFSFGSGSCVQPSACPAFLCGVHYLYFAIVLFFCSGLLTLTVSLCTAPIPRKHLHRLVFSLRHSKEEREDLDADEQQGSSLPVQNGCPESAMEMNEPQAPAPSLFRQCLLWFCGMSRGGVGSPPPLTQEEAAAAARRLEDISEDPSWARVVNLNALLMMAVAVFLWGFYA

Structure (SMILES) | average improvement in the HbA1c value [1] | rates of death from any cause [2] | rates of the primary composite cardiovascular outcome [2] | selectivity SGLT2 versus SGLT1 (SGLT2)
CN(C)C(=N)N=C(N)N [metformin] | 1.0-1.5% | – | – | –
OC[C@H]1O[C@@H](c2ccc(Cl)c(Cc3ccc(O[C@H]4CCOC4)cc3)c2)[C@H](O)[C@@H](O)[C@@H]1O [empagliflozin] | – | significantly lower rates | significantly lower rates | high selectivity
